Paper PMC8622385, “Metabolites of Prickly Rose: Chemodiversity and Digestive-Enzyme-Inhibiting Potential of Rosa acicularis and the Main Ellagitannin Rugosin D” (Plants, 2021)
One block for each compound: values may come before it.

Columns and labels:
[1] = molecular target: T1, α-amylase from the human pancreas (Homo sapiens, UniProt P04746); test: HPLC microfractionation with post-column pancreatic α-amylase inhibition (dyed starch); type: biochemical; conditions: HPLC zone of R. acicularis leaf extract (July sample), 30 s fractions
T1 construct: α-amylase from human pancreas; purchased Lee Biosolutions, Inc. Cat. No. 120-15; host or cells: human pancreas (tissue-derived)
T1 sequence (P04746 16-511): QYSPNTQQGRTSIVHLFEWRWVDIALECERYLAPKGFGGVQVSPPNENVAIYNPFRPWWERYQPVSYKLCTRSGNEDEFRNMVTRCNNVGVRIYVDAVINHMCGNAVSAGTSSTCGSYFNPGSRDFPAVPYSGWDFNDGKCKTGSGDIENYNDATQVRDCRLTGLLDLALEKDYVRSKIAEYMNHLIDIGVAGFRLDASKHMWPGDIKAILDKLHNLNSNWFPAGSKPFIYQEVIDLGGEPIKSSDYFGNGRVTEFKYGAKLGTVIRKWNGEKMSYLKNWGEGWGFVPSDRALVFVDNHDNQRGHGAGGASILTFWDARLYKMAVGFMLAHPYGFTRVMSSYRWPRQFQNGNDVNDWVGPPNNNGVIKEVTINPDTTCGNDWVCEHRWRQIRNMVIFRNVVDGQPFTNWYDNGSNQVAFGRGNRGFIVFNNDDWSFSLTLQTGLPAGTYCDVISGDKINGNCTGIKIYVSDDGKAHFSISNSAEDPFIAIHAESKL
Procedure: The probe of the extract was separated by HPLC, and fractions were eluted every 30 sec, collected, dried and mixed with pancreatic α-amylase. The hydrolytic activity of amylase was studied spectrophotometrically using starch azure as a substrate.
HPLC-PDA-ESI-tQ-MS conditions (Section 3.4) were used to separate the enlarged volume of R. acicularis leaf extract (July sample; 25 μL). The eluates (60 µL) were collected every 30 s by an automated fraction collector, a Shimadzu FRC-10A, and dried under a stream of N2. The eluate residue was dissolved in 50% methanol (50 µL) and added to 50 µL of water, 2.5 mL of Remazol-Brilliant-Blue-R-dyed starch (2% suspension in phosphate buffer, pH of 6.8) and 500 μL α-amylase from the human pancreas (0.4 U/mL), incubated for 50 min (37 °C) and the absorbance was measured at 620 nm. […] The value of 100% destruction of Remazol-Brilliant-Blue-R-dyed starch (or 0% content of intact starch compound) was measured for the eluate with a retention time of 0.5–1.0 min.

[2] = molecular target: T2, porcine pancreatic lipase (Sus scrofa, UniProt P00591); test: Simulated gastrointestinal digestion of artificial substrate mixture, lipase activity (4-methylumbelliferone marker, HPLC-DAD); type: biochemical
T2 construct: lipase from porcine pancreas; purchased Sigma-Aldrich L3126 (lipase); C3028 (colipase); host or cells: porcine pancreas (tissue-derived)
T2 sequence (P00591 1-450): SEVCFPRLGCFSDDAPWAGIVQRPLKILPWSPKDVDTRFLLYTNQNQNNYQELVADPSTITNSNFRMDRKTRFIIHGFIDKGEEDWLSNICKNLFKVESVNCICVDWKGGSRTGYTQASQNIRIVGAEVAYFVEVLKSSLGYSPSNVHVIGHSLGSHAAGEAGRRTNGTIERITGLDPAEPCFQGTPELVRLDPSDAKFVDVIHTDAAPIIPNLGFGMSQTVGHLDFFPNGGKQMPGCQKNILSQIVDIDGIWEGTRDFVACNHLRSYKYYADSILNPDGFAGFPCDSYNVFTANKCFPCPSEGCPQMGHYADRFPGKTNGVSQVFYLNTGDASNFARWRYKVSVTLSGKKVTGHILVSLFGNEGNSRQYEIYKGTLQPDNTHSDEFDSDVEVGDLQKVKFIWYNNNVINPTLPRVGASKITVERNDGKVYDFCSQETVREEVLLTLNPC
T2 sequence (P02703 23-112 partner): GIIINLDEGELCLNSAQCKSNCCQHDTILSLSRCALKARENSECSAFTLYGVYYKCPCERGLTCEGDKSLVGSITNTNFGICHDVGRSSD
From the text: To study the inhibitory potential of R. acicularis extracts on the digestive enzymes, we used the standardized static, simulated gastrointestinal digestion method of Minekus et al., based on physiologically relevant conditions of digestion [77]. In brief, the artificial substrate mixture, including ethylidene-p-nitrophenyl-α-D-maltoheptaoside (as a carbohydrate model), Nα-benzoyl-L-arginine-7-amino-4-methylcoumarin hydrochloride (as a protein model) and 4-methylumbelliferyl heptanoate (as a lipid model), was digested with extracts of R. acicularis leaves, flowers, roots and fruits (in doses of 100 μg/mL and 1000 μg/mL) by gastric and intestinal enzymatic and electrolyte mixtures (or juices). […] In a final step, concentrations of specific markers, such as p-nitrophenol, 7-amino-4-methylcoumarin and 4-methylumbelliferone, released from an artificial nutrient mixture, were analyzed by an HPLC-DAD assay. […]
For simulation, the known standardized static gastrointestinal digestion method of Minekus et al. [77] was used with no variation. […] The supernatant was analyzed using an HPLC-DAD assay (Section 3.7) to quantify the level of markers as p-nitrophenol, 7-amino-4-methylcoumarin and 4-methylumbelliferone formed from ethylidene-p-nitrophenyl-α-D-maltoheptaoside, Nα-benzoyl-L-arginine- 7-amino-4-methylcoumarin hydrochloride and 4-methylumbelliferyl heptanoate, respectively. […]

[3] = molecular target: T3, porcine pancreas α-amylase (Sus scrofa, UniProt P00690); test: α-Amylase inhibitory activity, microplate spectrophotometric assay; type: biochemical; conditions: mean ± S.D.; read-out: IC50 against porcine pancreas α-amylase (converted)
T3 construct: α-amylase from porcine pancreas; purchased Sigma-Aldrich Cat. No. 6255; host or cells: porcine pancreas (tissue-derived)
T3 sequence (P00690 16-511): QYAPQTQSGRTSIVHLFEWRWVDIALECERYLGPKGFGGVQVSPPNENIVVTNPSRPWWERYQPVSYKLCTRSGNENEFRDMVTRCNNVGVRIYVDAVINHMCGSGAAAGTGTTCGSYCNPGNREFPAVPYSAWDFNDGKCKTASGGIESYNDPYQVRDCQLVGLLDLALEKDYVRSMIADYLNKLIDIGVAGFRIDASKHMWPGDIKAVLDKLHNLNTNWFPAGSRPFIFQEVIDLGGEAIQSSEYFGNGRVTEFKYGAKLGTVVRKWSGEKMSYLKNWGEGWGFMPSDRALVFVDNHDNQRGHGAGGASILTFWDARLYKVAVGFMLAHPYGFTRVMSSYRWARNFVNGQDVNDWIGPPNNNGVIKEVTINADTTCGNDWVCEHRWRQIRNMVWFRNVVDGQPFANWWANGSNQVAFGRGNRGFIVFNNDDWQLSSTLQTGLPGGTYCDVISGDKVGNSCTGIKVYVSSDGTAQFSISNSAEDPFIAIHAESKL
From the text: (§1) The α-amylase-inhibiting potential of rugosin D was studied using a microplate spectrophotometric assay with three mammalian amylases, including α-amylase from porcine pancreas, α-amylase from human saliva and α-amylase from human pancreas.

human pancreas α-amylase = molecular target: T4, human pancreas α-amylase (Homo sapiens, UniProt P04746); test: as above; type: biochemical; conditions: mean ± S.D.; read-out: IC50 against human pancreas α-amylase (converted)
T4 construct: α-amylase from human pancreas; purchased Lee Biosolutions, Inc. Cat. No. 120-15; host or cells: human pancreas (tissue-derived)
T4 sequence (P04746 16-511): T1 sequence (P04746 16-511)
From the text: as §1

human saliva α-amylase = molecular target: T5, human saliva α-amylase (Homo sapiens, UniProt P0DUB6); test: as above; type: biochemical; conditions: mean ± S.D.; read-out: IC50 against human saliva α-amylase (converted)
T5 construct: α-amylase from human saliva; purchased Sigma-Aldrich Cat. No. 0521; host or cells: human saliva
T5 sequence (P0DUB6 16-511): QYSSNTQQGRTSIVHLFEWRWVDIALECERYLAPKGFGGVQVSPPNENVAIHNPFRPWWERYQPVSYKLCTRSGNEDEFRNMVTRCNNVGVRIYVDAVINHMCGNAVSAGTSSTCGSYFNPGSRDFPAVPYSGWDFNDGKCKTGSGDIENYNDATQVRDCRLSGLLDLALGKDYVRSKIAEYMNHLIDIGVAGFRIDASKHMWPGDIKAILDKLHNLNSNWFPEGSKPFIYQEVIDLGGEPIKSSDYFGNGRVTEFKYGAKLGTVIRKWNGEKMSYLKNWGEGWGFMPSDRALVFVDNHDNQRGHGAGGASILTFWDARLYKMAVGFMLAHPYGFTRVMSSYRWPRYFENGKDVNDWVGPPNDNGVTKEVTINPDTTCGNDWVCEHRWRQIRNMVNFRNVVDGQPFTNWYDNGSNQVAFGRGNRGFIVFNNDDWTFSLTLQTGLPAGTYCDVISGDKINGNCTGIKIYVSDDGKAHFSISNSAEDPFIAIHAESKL
From the text: as §1

[4] = test system: proteases (pepsin, trypsin, chymotrypsin); test: Simulated gastrointestinal digestion of artificial substrate mixture, protease activity (7-amino-4-methylcoumarin marker, HPLC-DAD); type: biochemical, porcine, bovine; conditions: doses of 1–1000 μg/mL
From the text: To study the inhibitory potential of R. acicularis extracts on the digestive enzymes, we used the standardized static, simulated gastrointestinal digestion method of Minekus et al., based on physiologically relevant conditions of digestion. In brief, the artificial substrate mixture, including ethylidene-p-nitrophenyl-α-D-maltoheptaoside (as a carbohydrate model), Nα-benzoyl-L-arginine-7-amino-4-methylcoumarin hydrochloride (as a protein model) and 4-methylumbelliferyl heptanoate (as a lipid model), was digested with extracts of R. acicularis leaves, flowers, roots and fruits ([…]) by gastric and intestinal enzymatic and electrolyte mixtures (or juices). […] In a final step, concentrations of specific markers, such as p-nitrophenol, 7-amino-4-methylcoumarin and 4-methylumbelliferone, released from an artificial nutrient mixture, were analyzed by an HPLC-DAD assay. […]
(§2) For simulation, the known standardized static gastrointestinal digestion method of Minekus et al. was used with no variation. […] The supernatant was analyzed using an HPLC-DAD assay (Section 3.7) to quantify the level of markers as p-nitrophenol, 7-amino-4-methylcoumarin and 4-methylumbelliferone formed from ethylidene-p-nitrophenyl-α-D-maltoheptaoside, Nα-benzoyl-L-arginine- 7-amino-4-methylcoumarin hydrochloride and 4-methylumbelliferyl heptanoate, respectively. […]

[5] = molecular target: T6, porcine pancreatic amylase (Sus scrofa, UniProt P00690); test: Simulated gastrointestinal digestion of artificial substrate mixture, amylase activity (p-nitrophenol marker, HPLC-DAD); type: biochemical; conditions: 1000 μg/mL; control = 100% of enzyme activity
T6 construct: α-amylase from porcine pancreas; purchased Sigma-Aldrich Cat. No. 6255; host or cells: porcine pancreas (tissue-derived)
T6 sequence (P00690 16-511): T3 sequence (P00690 16-511)
From the text: To study the inhibitory potential of R. acicularis extracts on the digestive enzymes, we used the standardized static, simulated gastrointestinal digestion method of Minekus et al., based on physiologically relevant conditions of digestion. In brief, the artificial substrate mixture, including ethylidene-p-nitrophenyl-α-D-maltoheptaoside (as a carbohydrate model), Nα-benzoyl-L-arginine-7-amino-4-methylcoumarin hydrochloride (as a protein model) and 4-methylumbelliferyl heptanoate (as a lipid model), was digested with extracts of R. acicularis leaves, flowers, roots and fruits (in doses of 100 μg/mL and 1000 μg/mL) by gastric and intestinal enzymatic and electrolyte mixtures (or juices). […] In a final step, concentrations of specific markers, such as p-nitrophenol, 7-amino-4-methylcoumarin and 4-methylumbelliferone, released from an artificial nutrient mixture, were analyzed by an HPLC-DAD assay. […]
as §2

Structure (SMILES): O=C(O)[C@H]1O[C@@H](Oc2c(-c3ccc(O)c(O)c3)oc3cc(O)cc(O)c3c2=O)[C@H](O)[C@@H](O)[C@@H]1O [miquelianin, Quercetin-3-O-glucuronide]
Pancreatic-α-amylase-inhibiting activity of HPLC zone (in words) [1]: medium activity

Structure (SMILES): CCCCCCCCCCC[C@@H](C[C@@H]1OC(=O)[C@H]1CCCCCC)OC(=O)[C@H](CC(C)C)NC=O [orlistat, reference compound]
Lipase activity (percentage of initial) after simulated gastrointestinal digestion ([2]; 1000 μg/mL, control = 100% of enzyme activity): 38%

Structure (SMILES): O=C(O[C@@H]1O[C@@H]2COC(=O)c3cc(Oc4c(C(=O)O[C@@H]5O[C@@H]6COC(=O)c7cc(O)c(O)c(O)c7-c7c(cc(O)c(O)c7O)C(=O)O[C@H]6[C@H](OC(=O)c6cc(O)c(O)c(O)c6)[C@H]5OC(=O)c5cc(O)c(O)c(O)c5)cc(O)c(O)c4O)c(O)c(O)c3-c3c(cc(O)c(O)c3O)C(=O)O[C@H]2[C@H](OC(=O)c2cc(O)c(O)c(O)c2)[C@H]1OC(=O)c1cc(O)c(O)c(O)c1)c1cc(O)c(O)c(O)c1 [Rugosin D]
IC50 [3]: 17.1 µM
IC50 (human pancreas α-amylase): 16.4 µM
IC50 (human saliva α-amylase): 36 µM
Inhibition of protease activity in simulated digestion (in words) [4]: not substantially inhibited
Starch protected (starch content as percentage of initial) after reaction with pancreatic amylase [1]: 82–95%
Inhibition of lipase activity in simulated digestion (in words) ([2]; doses of 1–1000 μg/mL): not substantially inhibited

Pancreatic-α-amylase-inhibiting activity of HPLC zone (in words) [1]: medium activity
Structure (SMILES): O=C(OC1O[C@@H]2COC(=O)c3cc(O)c(O)c(O)c3-c3c(cc(O)c(O)c3O)C(=O)O[C@H]2[C@H](OC(=O)c2cc(O)c(O)c(O)c2)[C@H]1OC(=O)c1cc(O)c(O)c(O)c1)c1cc(O)c(O)c(O)c1 (some centres unmarked) [tellimagrandin II, Tellimagrandin II1]

Amylase activity (percentage of initial) after simulated gastrointestinal digestion [5]: 55%
Structure (SMILES): C[C@H]1O[C@H](O[C@H]2[C@H](O)[C@@H](O)[C@@H](O[C@H]3[C@H](O)[C@@H](O)C(O)O[C@@H]3CO)O[C@@H]2CO)[C@H](O)[C@@H](O)[C@@H]1N[C@H]1C=C(CO)[C@@H](O)[C@H](O)[C@H]1O (some centres unmarked) [Acarbose]

Pancreatic-α-amylase-inhibiting activity of HPLC zone (in words) [1]: medium activity
Structure (SMILES): O=C(OC[C@H]1O[C@@H](OC(=O)c2cc(O)c(O)c(O)c2)[C@H](OC(=O)c2cc(O)c(O)c(O)c2)[C@@H](OC(=O)c2cc(O)c(O)c(O)c2)[C@@H]1O)c1cc(O)c(O)c(O)c1 [1,2,3,6-tetra-O-galloyl glucose, 1,2,3,6-Tetra-O-galloyl glucose]
